Data published in US9120745B2, “Triazole compounds that modualte HSP90 activity” (Synta Pharmaceuticals Corp., priority 2007, dated 2015).

Columns and labels:
[1] = system: Her2; test: Degradation of Her2 in BT-474 cells after treatment with compound (Western blot, Method 1); format: cell-based, human; conditions: for IC50: treated overnight in DMEM
Procedure: Human high-Her2 breast carcinoma BT474 (HTB-20), SK-BR-3 (HTB-30) and MCF-7 breast carcinoma (HTB-22) from American Type Culture Collection, VA, USA were grown in Dulbecco's modified Eagle's medium with 4 mM L-glutamine and antibiotics (100 IU/ml penicillin and 100 ug/ml streptomycine; GibcoBRL). To obtain exponential cell growth, cells were trypsinized, counted and seeded at a cell density of 0.5×10^6 cells/ml regularly, every 3 days. All experiments were performed on day 1 after cell passage.
BT-474 cells were treated with 0.5 μM, 2 μM, or 5 μM of 17AAG (a positive control) or 0.5 μM, 2 μM, or 5 μM of a compound of the invention overnight in DMEM medium. After treatment, each cytoplasmic sample was prepared from 1×10^6 cells by incubation of cell lysis buffer (#9803, cell Signaling Technology) on ice for 10 minutes. The resulting supernatant used as the cytosol fractions are dissolved with sample buffer for SDS-PAGE and run on a SDS-PAGE gel, blotted onto a nitrocellulose membrane by using semi-dry transfer. Non-specific binding to nitrocellulose was blocked with 5% skim milk in TBS with 0.5% Tween at room temperature for 1 hour, then probed with anti-Her2/ErB2 mAb (rabbit IgG, #2242, Cell Signaling) and anti-Tubulin (T9026, Sigma) as housekeeping control protein. HRP-conjugated goat anti-rabbit IgG (H+L) and HRP-conjugated horse anti-mouse IgG (H+L) were used as secondary Ab (#7074, #7076, Cell Signaling) and LumiGLO reagent, 20× Peroxide (#7003, Cell Signaling) was used for visualization.

[2] = system: canine osteosarcoma tumor cell line D17; test: SCID mouse xenograft model, canine osteosarcoma tumor cell line D17; format: in vivo; conditions: D17 xenograft in SCID mice
Procedure: (§1) The human multiple myeloma cell line, RPMI 8226 (ATCC #CCL-155), and the canine osteosarcoma cell line, D-17 (ATCC #CCL-183), were obtained from the American Type Culture Collection (ATCC; Manassas, Va., USA). The cells were cultured in growth media prepared with RPMI Media 1640 (4.5 g/L glucose), 10% fetal bovine serum (FBS), 10 mM HEPES, 1% 100× Penicillin-Streptomycin, 1% 100× sodium pyruvate and 1% 100×MEM non-essential amino acids. FBS was obtained from ATCC and all other reagents were obtained from Invitrogen Corp. (Carlsbad, Calif., USA). Cells that had been cryopreserved in liquid nitrogen were rapidly thawed at 37° C. and transferred to a tissue culture flask containing growth media and then incubated at 37° C. in a 5% CO2 incubator. To expand the RPMI 8226 cell line, growth media was changed every 2-3 days and cultures were passaged 1:3 to 1:5 every 3-5 days. When the a 175 cm^2 flask reached approximately 20-40×10(6) total cells, the above passaging process was repeated until sufficient cells had been obtained for implantation into mice. […] The supernatant was aspirated and the cell pellet was resuspended in 10 mL of growth media and the cell number determined using a hemocytometer. […]
(§2) Tumors were then permitted to develop in vivo until the majority reached 75-250 mm^3 in tumor volume, which required ˜4 weeks following implantation for the RPMI 8226 model and ˜9 weeks for the D-17 model. […] Tumor volumes (V) were calculated by caliper measurement of the width (W), length (L) and thickness (T) of tumors using the following formula: V=0.5236×(L×W×T). Animals were randomized into treatment groups so that the average tumor volumes of each group were similar at the start of dosing. % T/C values, as a measure of efficacy, were determined as follows: • (i) If ΔT>0: % T/C=(ΔT/ΔC)×100 • (ii) If ΔT<0: % T/C=(ΔT/T0)×100 • (iii) ΔT=Change in average tumor volume between start of dosing and the end of study. • (iv) ΔC=Change in average tumor volume between start of dosing and the end of study. • (v) T0=Average tumor volume at start of dosing. […]

[3] = system: human multiple myeloma tumor cell line RPMI 8226; test: SCID mouse xenograft model, human multiple myeloma tumor cell line RPMI 8226; format: in vivo; conditions: RPMI 8226 xenograft in SCID mice
Procedure: as §1, §2

Compound `CC(C)c1cc(-c2nnc(O)n2-c2ccc3c(c2)CCC3)c(O)cc1OP(=O)(O)O` [Compound 1, 4-(4-(2,3-dihydro-1H-inden-5-yl)-5-hydroxy-4H-1,2,4-triazol-3-yl)-5-hydroxy-2-isopropylphenyl dihydrogen phosphate] has an IC50 [1] of 228 nM.

Work on `CC(C)c1cc(-c2nnc(O)n2-c2ccc3c(ccn3C)c2)c(O)cc1OP(=O)(O)O` [Compound 4, sodium 5-hydroxy-4-(5-hydroxy-4-(1-methyl-1H-indol-5-yl)-4H-1,2,4-triazol-3-yl)-2-isopropylphenyl phosphate] yielded an IC50 ([1]; phosphate) of 182 nM.

With `CC(C)c1cc(-c2nnc(O)n2-c2ccc3c(ccn3C)c2)c(O)cc1OP(=O)(O)O` [Compound 3, 5-hydroxy-4-(5-hydroxy-4-(1-methyl-1H-indol-5-yl)-4H-1,2,4-triazol-3-yl)-2-isopropylphenyl dihydrogen phosphate] the IC50 [1] was 88 nM, the overt toxicity ([2]; 61 mg/kg) was “Overt toxicity was not observed” and the “% T/C value” ([2]; 61 mg/kg body weight i.v., day 83) was 6%. For the same compound, the “average bodyweight change relative to the start of the study” value ([2]; 61 mg/kg, day 83) was −0.2%, the overt toxicity ([3]; 100 mg/kg) was “Overt toxicity was not observed” and the “% T/C value” ([3]; 100 mg/kg body weight i.v., day 46) was 15%. The “average bodyweight change relative to the start of the study” value ([3]; 100 mg/kg, day 46) was 2.1%.

`C=CCNC1=C2C[C@@H](C)C[C@H](OC)[C@H](O)[C@@H](C)/C=C(\C)[C@H](OC(N)=O)[C@@H](OC)/C=C\C=C(/C)C(=O)NC(=CC1=O)C2=O` [Compound 17AAG, 17-allylamino-17-demethoxygeldanamycin, reference compound] was tested, and the “degradation of Her2” value ([1]; 0.5 μM, positive control, results not shown) was “partial degradation”.

In the case of `CC(C)c1cc(-c2nnc(O)n2-c2ccc(N3CCOCC3)nc2)c(O)cc1OP(=O)(O)O` [Compound 2, 5-hydroxy-4-(5-hydroxy-4-(6-morpholinopyridin-3-yl)-4H-1,2,4-triazol-3-yl)-2-isopropylphenyl dihydrogen phosphate], the IC50 [1] is reported as 90 nM.
